Data as given in patent US8183238B2, “Bicyclic and tricyclic compounds as KAT II inhibitors” (priority 2009, dated 2012).

Assays:
[1] = Prodrug in vivo pharmacokinetics in dogs (plasma, LC-MS-MS); parameters: species or system Dog (Beagle); settings: for AUC / Cmax / Tmax / half-life: Beagle, dog; for F: calculated using IV AUC of 247 ng · h/mL
Description: Test substances (Examples 4 and 71-73) were administered by oral gavage to groups of two dogs. Example 71 was also administered intravenously.
Blood samples were taken at various times after administration and submitted to analysis for the parent drug (Example 71) and pro-drug (Examples 72 and 73) using an LC-MS-MS assay. Pharmacokinetic parameters derived from the plasma analytical data were determined using Watson LIMS 7.2.003 (Thermo Fisher Scientific, Waltham, Mass.). The results are given in FIG. 1 and Tables 8, 9, 10, and 11.

[2] = molecular target: human KAT II (hKAT II) enzyme (Homo sapiens, UniProt Q8N5Z0); assay: KAT II Inhibition Spectra Assay; assay type: biochemical; settings: Table 6; hKAT II, decrease in OD370, 37° C., 15-20 h; read-out: KATII IC50
Procedure, shortened: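 hKAT II (15 nM, 3× stock) converts L-kynurenine (3 mM, 3× stock) with α-ketoglutarate and PLP in Tris acetate; 15–20 h at 37 °C. Inhibition of the OD370 decrease read versus DMSO wells across a concentration range gives IC50.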

[3] = Prodrug in vivo pharmacokinetics in monkeys (plasma, LC-MS-MS); parameters: species or system Monkey (Cynomolgus); settings: for AUC / Cmax / Tmax / half-life: cynomolgus monkey; for F: calculated using IV AUC of 476 ng · h/mL
Description: Test substances (Examples 4 and 71-73) were administered by oral gavage to groups of two monkeys.
Blood samples were taken at various times after administration and submitted to analysis for the parent drug (Example 4 and Example 71) and pro-drug (Examples 72 and 73) using an LC-MS-MS assay. […] Pharmacokinetic parameters derived from the plasma analytical data were determined using Watson LIMS 7.2.003 (Thermo Fisher Scientific, Waltham, Mass.). The results are given in FIG. 2 and Tables 13, 14, and 15.

[4] = plasma, po, 2 mg/kg, Example 71 in dog plasma after oral Example 71 (2 mg/kg active), Dog 1
[5] = plasma, po, 2 mg/kg, Example 71 in dog plasma after oral Example 71 (2 mg/kg active), Dog 2
[6] = plasma, po, 2 mg/kg, Example 71 in dog plasma after oral Example 71 (2 mg/kg active), Mean
[7] = Example 71 in dog plasma after oral Example 71 (2 mg/kg active), Dog 1
[8] = Example 71 in dog plasma after oral Example 71 (2 mg/kg active), Dog 2
[9] = Example 71 in dog plasma after oral Example 71 (2 mg/kg active), Mean
[10] = Cynomolgus, plasma, po, 3 mg/kg, Example 71 in monkey plasma after oral Example 71 (3 mg/kg active), Mean
[11] = Cynomolgus, plasma, po, 3 mg/kg, Example 71 in monkey plasma after oral Example 71 (3 mg/kg active), Monkey 1
[12] = Cynomolgus, plasma, po, 3 mg/kg, Example 71 in monkey plasma after oral Example 71 (3 mg/kg active), Monkey 2
[13] = Example 71 in monkey plasma after oral Example 71 (3 mg/kg active), Mean
[14] = Example 71 in monkey plasma after oral Example 71 (3 mg/kg active), Monkey 1
[15] = Example 71 in monkey plasma after oral Example 71 (3 mg/kg active), Monkey 2

Sequence of human KAT II (hKAT II) enzyme (Q8N5Z0 30-425): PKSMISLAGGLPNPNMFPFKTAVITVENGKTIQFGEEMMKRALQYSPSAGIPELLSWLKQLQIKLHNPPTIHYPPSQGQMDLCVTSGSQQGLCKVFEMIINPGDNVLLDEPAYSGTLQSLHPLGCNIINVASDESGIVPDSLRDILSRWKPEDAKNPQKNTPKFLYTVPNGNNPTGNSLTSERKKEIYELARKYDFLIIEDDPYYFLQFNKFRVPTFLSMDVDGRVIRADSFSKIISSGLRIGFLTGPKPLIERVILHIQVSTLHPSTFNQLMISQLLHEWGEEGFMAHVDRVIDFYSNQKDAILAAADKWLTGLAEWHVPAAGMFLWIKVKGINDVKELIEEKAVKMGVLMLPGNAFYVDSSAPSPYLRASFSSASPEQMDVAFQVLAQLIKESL

Cl.N[C@H]1Cc2cc(Oc3ccccc3)ccc2N(O)C1=O [Example 71, (3S)-3-amino-1-hydroxy-6-phenoxy-3,4-dihydroquinolin-2(1H)-one, hydrochloride salt]
AUC ([1]; in vivo, exposure of Example 71 in dogs following intravenous administration of Example 71 at 0.5 mg/kg, read-out: AUC): 247 ng·h/mL | Cmax [1, 4]: 25.4 ng/mL | Tmax [1, 4]: 15 min | half-life [1, 4]: 26.3 min | AUC ([1]; plasma, po, 2 mg/kg, Example 71 in dog plasma after oral Example 71 (2 mg/kg active), Dog 1, read-out: AUC): 10.3 ng·h/mL | AUC ([1]; plasma, po, 2 mg/kg, Example 71 in dog plasma after oral Example 71 (2 mg/kg active), Dog 1, read-out: AUC Extrap): 10.7 ng·h/mL | Cmax [1, 5]: 15.4 ng/mL | Tmax [1, 5]: 15 min | half-life [1, 5]: 17.9 min | AUC ([1]; plasma, po, 2 mg/kg, Example 71 in dog plasma after oral Example 71 (2 mg/kg active), Dog 2, read-out: AUC): 12.2 ng·h/mL | AUC ([1]; plasma, po, 2 mg/kg, Example 71 in dog plasma after oral Example 71 (2 mg/kg active), Dog 2, read-out: AUC Extrap): 12.5 ng·h/mL | Cmax [1, 6]: 20.4 ng/mL | Tmax [1, 6]: 15 min | half-life [1, 6]: 22.1 min | AUC ([1]; plasma, po, 2 mg/kg, Example 71 in dog plasma after oral Example 71 (2 mg/kg active), Mean, read-out: AUC): 11.3 ng·h/mL | AUC ([1]; plasma, po, 2 mg/kg, Example 71 in dog plasma after oral Example 71 (2 mg/kg active), Mean, read-out: AUC Extrap): 11.6 ng·h/mL | % AUC Extrap [1, 7]: 3.44% | % AUC Extrap [1, 8]: 2.35% | % AUC Extrap [1, 9]: 2.9% | F [1, 7]: 1.0% | F [1, 8]: 1.3% | F [1, 9]: 1.2% | IC50 [2]: 22.7 nM | AUC ([3]; Cynomolgus, in vivo, plasma exposure of Example 71 in monkeys following intravenous administration of Example 71 at 0.5 mg/kg, read-out: AUC): 476 ng·h/mL | Cmax [3, 10]: 53.4 ng/mL | Tmax [3, 10]: 22.8 min | half-life [3, 10]: 52.9 min | Cmax [3, 11]: 44 ng/mL | Tmax [3, 11]: 15 min | half-life [3, 11]: 62.4 min | Cmax [3, 12]: 62.8 ng/mL | Tmax [3, 12]: 30 min | half-life [3, 12]: 43.4 min | % AUC Extrap [3, 13]: 1.28% | % AUC Extrap [3, 14]: 2.19% | % AUC Extrap [3, 15]: 0.366% | F [3, 13]: 3.2% | F [3, 14]: 2.2% | F [3, 15]: 4.2% | AUC ([3]; plasma, po, 3 mg/kg, Example 71 in monkey plasma after oral Example 71 (3 mg/kg active), Mean, read-out: AUC): 94.8 ng·h/mL | AUC ([3]; plasma, po, 3 mg/kg, Example 71 in monkey plasma after oral Example 71 (3 mg/kg active), Mean, read-out: AUC Extrap): 95.4 ng·h/mL | AUC ([3]; plasma, po, 3 mg/kg, Example 71 in monkey plasma after oral Example 71 (3 mg/kg active), Monkey 1, read-out: AUC): 55.5 ng·h/mL | AUC ([3]; plasma, po, 3 mg/kg, Example 71 in monkey plasma after oral Example 71 (3 mg/kg active), Monkey 1, read-out: AUC Extrap): 56.7 ng·h/mL | AUC ([3]; plasma, po, 3 mg/kg, Example 71 in monkey plasma after oral Example 71 (3 mg/kg active), Monkey 2, read-out: AUC): 134 ng·h/mL | AUC ([3]; plasma, po, 3 mg/kg, Example 71 in monkey plasma after oral Example 71 (3 mg/kg active), Monkey 2, read-out: AUC Extrap): 134 ng·h/mL
